Read-outs that look alike come from different tables or passages of the source.

Experiment [1] deals with T1, hAChE (Homo sapiens, UniProt P22303).
T1 construct: gene ACHE; commercial recombinant human enzyme (Sigma-Aldrich)
The experiment in a line: Ellman assay, 96-well, […] nm. The format is biochemical.

Experiment [2] has as its target T1, hAChE. Description: Ellman assay, 96-well, […] nm. The format is biochemical. The source holds these as a separate data set. On the technique in general: Ellman's reagent forms a yellow product with free thiols.
The nature of experiment [3]: Ellman assay, 96-well, […] nm. The format is biochemical, Homo sapiens. As to conditions: read-out: AgAChE, IC50, ^a nM.
The mark [4] stands for this setting: acetylthiocholine, pH 7.8, 10 min pre-incubation, 0.1% DMSO; covalent; read-out: hAChE IC50 ^a; cited from earlier work.

T1 sequence (P22303 32-614): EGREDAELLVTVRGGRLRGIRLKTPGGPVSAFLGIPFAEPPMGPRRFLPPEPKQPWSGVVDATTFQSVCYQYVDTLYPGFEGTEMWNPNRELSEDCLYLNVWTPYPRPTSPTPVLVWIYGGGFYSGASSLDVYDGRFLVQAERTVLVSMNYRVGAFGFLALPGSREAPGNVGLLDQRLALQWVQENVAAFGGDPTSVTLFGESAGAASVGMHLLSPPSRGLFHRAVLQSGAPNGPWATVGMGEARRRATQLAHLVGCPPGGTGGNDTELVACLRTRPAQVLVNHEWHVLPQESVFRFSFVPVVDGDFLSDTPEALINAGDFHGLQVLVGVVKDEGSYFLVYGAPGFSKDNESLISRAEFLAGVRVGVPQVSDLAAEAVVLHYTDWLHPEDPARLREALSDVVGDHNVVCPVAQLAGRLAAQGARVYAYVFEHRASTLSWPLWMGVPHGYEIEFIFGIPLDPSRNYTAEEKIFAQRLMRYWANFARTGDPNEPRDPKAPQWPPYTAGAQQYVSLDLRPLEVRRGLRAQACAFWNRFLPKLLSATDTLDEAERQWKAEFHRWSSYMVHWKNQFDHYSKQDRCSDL

Consider `CC[Si](C)(C)c1cc(OC(=O)NC)ccc1C` [4c, 3-(ethyldimethylsilyl)-4-methylphenyl methylcarbamate], for which the IC50 on hAChE [1] amounted to 1.4 µM.

Take `CNC(=O)Oc1ccc(C(=O)NC)c(C(C)(C)C)c1` [1i, 3-(tert-butyl)-4-(methylcarbamoyl)phenyl methylcarbamate]: at hAChE [1], the IC50 is > 100 µM.

As to `CC[Si](C)(C)c1cccc(OC(=O)NC)c1` [4a], the IC50 at hAChE [2] (setting [4]) is 0.63 µM.

The compound `CNC(=O)Oc1cc(F)cc([Si](C)(C)C)c1` [3g, 3-fluoro-5-(trimethylsilyl)phenyl methylcarbamate] gave an IC50 at hAChE [1] of 4.2 µM.

In the case of “3-(tert-butyl)-4-(ethyl(methyl)carbamoyl)phenyl methylcarbamate [1l]”, the IC50 at hAChE [1] (acetylthiocholine, pH 7.8, 10 min pre-incubation, 0.1% DMSO, covalent, read-out: hAChE ^aIC50) turned out to be 5.5 µM.

Take `CCCSc1ccccc1OC(=O)NC` [6a, 2-(propylthio)phenyl methylcarbamate]: at hAChE [1], the IC50 came out at 2.3 µM.

As for `CNC(=O)Oc1ccc(C(=O)NCC(C)C)c(C(C)(C)C)c1` [1j, 3-(tert-butyl)-4-(isobutylcarbamoyl)phenyl methylcarbamate], the IC50 at hAChE [1] was > 100 µM.

On to `CNC(=O)Oc1cccc([Si](C)(C)C)c1` [3a], for which, on hAChE [2] (setting [4]), the IC50 was 0.49 µM.

Turning to `CNC(=O)Oc1cccc(C(C)(C)C)c1` [1a, 3-tert-butylphenyl methylcarbamate], on hAChE [2] (read-out: hAChE ^aIC50; acetylthiocholine, pH 7.8, 10 min pre-incubation, 0.1% DMSO; covalent; cited from earlier work), the IC50 is 0.32 µM.

As to `CNC(=O)Oc1cc(C(C)(C)C)ccc1Br` [1d, 2-bromo-5-(tert-butyl)phenyl methylcarbamate], at hAChE [1], the IC50 was determined as 0.048 µM.

With `CNC(=O)Oc1ccc(Br)c(C(C)(C)C)c1` [1b, 4-bromo-3-(tert-butyl)phenyl methylcarbamate], on hAChE [1], the IC50 was 1.2 µM.

`CCCCCCc1ccc(C(C)(C)C)cc1OC(=O)NC` [1f, 5-(tert-butyl)-2-hexylphenyl methylcarbamate] gave an IC50 against hAChE [1] of 6.3 µM.

Turning to `CNC(=O)Oc1cccc(C(F)(F)F)c1` [2a, 3-(trifluoromethyl)phenyl methylcarbamate], the IC50 in experiment [3] is > 100000 nM.

The compound `CNC(=O)Oc1cc(C(C)(C)C)ccc1SC(C)C` [1o, 5-(tert-butyl)-2-(isopropylthio)phenyl methylcarbamate] returned an IC50 against hAChE [1] of 2.2 µM.

Regarding `CC[Si](C)(C)c1cc(F)cc(OC(=O)NC)c1` [4g, 3-(ethyldimethylsilyl)-5-fluorophenyl methylcarbamate], the IC50 against hAChE [1] amounted to 1.9 µM.

With `CCC(CC)CSc1ccccc1OC(=O)NC` [5a], at hAChE [2] (read-out: hAChE IC50 ^a; acetylthiocholine, pH 7.8, 10 min pre-incubation, 0.1% DMSO; covalent; cited from earlier work), the IC50 was 5 µM.

On hAChE [1], `CNC(=O)Oc1ccc(C)c([Si](C)(C)C)c1` [3c, 4-methyl-3-(trimethylsilyl)phenyl methylcarbamate] registered an IC50 of 2.4 µM.

Compound `CNC(=O)Oc1cc(C(C)(C)C)ccc1I` [1e, 5-(tert-butyl)-2-iodophenyl methylcarbamate] gave an IC50 against hAChE [1] of 0.64 µM.

At hAChE [1], `CNC(=O)Oc1cc(C(C)(C)C)ccc1SCC(C)C` [1n, 5-(tert-butyl)-2-(isobutylthio)phenyl methylcarbamate] yielded an IC50 of 4.7 µM.

Regarding `CNC(=O)Oc1cc(C(C)(C)C)ccc1SC` [1m, 5-(tert-butyl)-2-(methylthio)phenyl methylcarbamate], the IC50 on hAChE [1] came to 0.64 µM.

With `C=CCNC(=O)c1ccc(OC(=O)NC)cc1C(C)(C)C` [1h, 4-(allylcarbamoyl)-3-(tert-butyl)phenyl methylcarbamate], on hAChE [1], the IC50 was determined as 2.8 µM.

With `CCN(CC)C(=O)c1ccc(OC(=O)NC)cc1C(C)(C)C` [1k, 3-(tert-butyl)-4-(diethylcarbamoyl)phenyl methylcarbamate], the IC50 against hAChE [1] worked out at 2.3 µM.

The values above are taken from paper PMC6539584, “Mosquito Acetylcholinesterase as a Target for Novel Phenyl-Substituted Carbamates” (International Journal of Environmental Research and Public …, 2019).
